Laboratory results published in patent publication US20070249673A1, “Method for administering tolperisone” (priority 2006, published 2007).
Read-outs that look alike come from different tables or passages of the source. Values belong to the molecule of their own block, whether it stands above or below them.

Key:
[1] = Pharmacokinetic profile of tolperisone after single and multi-dosing (150 mg regimen over 7 days) in healthy subjects under fasted and fed conditions; details: for AUC(0-t) / AUC(inf) / Cmax / t½ / λz / AUC(0-6): mean ± SD; for Tmax: median
Description: (§1) Dosing Regimen: Subjects in each cohort received tolperisone according to the following regimen.
(§2) Blood samples for the measurement of the plasma concentrations of tolperisone and metabolites M1 (4-hydroxymethyltolperisone) and M4 (4-carboxy-tolperisone) were collected at the times shown in Table 8.
(§3) Bioanalytical: Plasma concentrations of tolperisone and metabolites M1 and M4 were measured using a validated LC/MS/MS assay by Pharm-analyt Laboratory, Baden Austria. The limits of quantitation (LOQ) for tolperisone, Mi, and M4 in plasma were 0.2 ng/ML, and 0.01 μg/mL, respectively.
(§4) Pharmacokinetic Analyses: Pharmacokinetic parameters for tolperisone, M1, and M4 were calculated using non-compartmental analysis. Only plasma concentrations greater than or equal to the LOQ for the respective assay were used in the pharmacokinetic analyses. Actual blood sampling times were used in all pharmacokinetic analyses. […] All pharmacokinetic calculations were done using SAS® for Windows® Version 9.1.3.
(§5) The maximum plasma concentration (Cmax) and time to Cmax (Tmax) were taken directly from the data. The elimination rate constant, λz, was calculated as the negative of the slope of the terminal log-linear segment of the plasma concentration-time curve. The range of data to be used for each subject and treatment was determined by visual inspection of a semi-logarithmic plot of concentration versus time. Elimination half-life (t½) was calculated according to the following equation: [formula] Area under the curve to the final sample with a concentration greater than or equal to the LOQ [(AUC(0-t)] was calculated using the linear trapezoidal method and extrapolated to infinity [AUC(inf)] using: [formula] where Ctf is the final concentration≧LOQ.
(§6) The maximum plasma concentration (Cmax) and time to Cmax (Tmax) were taken directly from the data.
(§7) The maximum plasma concentration (Cmax) and time to Cmax (Tmax) were taken directly from the data. The elimination rate constant, λz, and half-life, t½, were calculated as described for the 0800 dose on Day 1 (above). Areas under the curve to the final sample with a concentration greater than or equal to the LOQ [(AUC(O-t)] and over the 6-hour dosing interval [AUC(0-6)] were calculated using the linear trapezoidal method.

[2] = Food effect of tolperisone: open-label, single dose, 4-way crossover pharmacokinetic study in healthy male volunteers; details: for AUC0-oo / AUC0-tlast / Cmax / Tmax / t1/2 / λz: 150 mg single oral dose, plasma, mean ± SD
[3] = human, in vivo
[4] = human, in vivo; remark: listed apart in the source
Description: as §1, §2, §3, §4, §5, §6, §7

clinical = details: human, in vivo
Description: as §1, §2, §3, §4, §5, §6, §7

[5] = Day 1 - 0800 Dose, Fasted, Females
[6] = Day 1 - 0800 Dose, Fasted, Males
[7] = Day 1 - 0800 Dose, Fasted, both sexes
[8] = Day 1 - 0800 Dose, Fed, Females
[9] = Day 1 - 0800 Dose, Fed, both sexes
[10] = Day 1, fed vs fasted, both sexes
[11] = Day 2 - 2200 Dose, Fasted, Females
[12] = Day 2 - 2200 Dose, Fasted, Males
[13] = Day 2 - 2200 Dose, Fasted, both sexes
[14] = Day 2 - 2200 Dose, Fed, Females
[15] = Day 2 - 2200 Dose, Fed, both sexes
[16] = Day 7 - 0800 Dose, Fasted, Females
[17] = Day 7 - 0800 Dose, Fasted, Males
[18] = Day 7 - 0800 Dose, Fasted, both sexes
[19] = Day 7 - 0800 Dose, Fed, Females
[20] = Day 7 - 0800 Dose, Fed, both sexes
[21] = Day 7 - 2200 Dose, Fasted, Females
[22] = Day 7 - 2200 Dose, Fasted, Males
[23] = Day 7 - 2200 Dose, Fasted, both sexes
[24] = Day 7 - 2200 Dose, Fed, Females
[25] = Day 7 - 2200 Dose, Fed, both sexes

AUC(0-t) [1, 5]: 3.98 ± 2.48 (3) h · ng/mL
AUC(inf) [1, 5]: 4.10 ± 2.55 (3) h · ng/mL
Cmax [1, 5]: 2.06 ± 1.44 (3) ng/mL
t½ [1, 5]: 1.03 ± 0.090 (3) h
λz [1, 5]: 0.6787 ± 0.0627 (3) h^−1
Tmax [1, 5]: 1.00 (3) h
AUC(0-t) [1, 6]: 3.49 ± 1.47 (7) h · ng/mL
AUC(inf) [1, 6]: 3.60 ± 1.48 (7) h · ng/mL
Cmax [1, 6]: 2.30 ± 1.50 (7) ng/mL
t½ [1, 6]: 1.16 ± 0.18 (7) h
λz [1, 6]: 0.6081 ± 0.0792 (7) h^−1
Tmax [1, 6]: 0.75 (7) h
AUC(0-t) [1, 7]: 3.63 ± 1.69 (10) h · ng/mL
AUC(inf) [1, 7]: 3.75 ± 1.72 (10) h · ng/mL
Cmax [1, 7]: 2.22 ± 1.40 (10) ng/mL
t½ [1, 7]: 1.12 ± 0.17 (10) h
λz [1, 7]: 0.6293 ± 0.0788 (10) h^−1
Tmax [1, 7]: 0.88 (10) h
AUC(0-t) [1, 8]: 8.23 ± 5.46 (4) h · ng/mL
AUC(inf) [1, 8]: 8.64 ± 5.79 (4) h · ng/mL
Cmax [1, 8]: 3.29 ± 2.36 (4) ng/mL
t½ [1, 8]: 1.04 ± 0.12 (4) h
λz [1, 8]: 0.6700 ± 0.0749 (4) h^−1
Tmax [1, 8]: 2.00 (4) h
AUC(0-t) ([1]; Day 1 - 0800 Dose, Fed, Males): 4.22 ± 1.08 (6) h · ng/mL
AUC(inf) ([1]; Day 1 - 0800 Dose, Fed, Males): 4.31 ± 1.12 (6) h · ng/mL
Cmax ([1]; Day 1 - 0800 Dose, Fed, Males): 3.07 ± 0.68 (6) ng/mL
t½ ([1]; Day 1 - 0800 Dose, Fed, Males): 1.03 ± 0.09 (6) h
λz ([1]; Day 1 - 0800 Dose, Fed, Males): 0.6791 ± 0.0554 (6) h^−1
Tmax ([1]; Day 1 - 0800 Dose, Fed, Males): 0.88 (6) h
AUC(0-t) [1, 9]: 5.82 ± 3.86 (10) h · ng/mL
AUC(inf) [1, 9]: 6.05 ± 4.11 (10) h · ng/mL
Cmax [1, 9]: 3.16 ± 1.46 (10) ng/mL
t½ [1, 9]: 1.03 ± 0.10 (10) h
λz [1, 9]: 0.6754 ± 0.0599 (10) h^−1
Tmax [1, 9]: 1.00 (10) h
increase in the mean value for AUC(inf) on administration with food [1, 10]: 61%
increase in the mean value for Cmax on administration with food [1, 10]: 42%
Cmax [1, 11]: 1.83 ± 0.70 (3) ng/mL
Tmax [1, 11]: 0.75 (3) h
Cmax [1, 12]: 1.08 ± 0.68 (7) ng/mL
Tmax [1, 12]: 1.50 (7) h
Cmax [1, 13]: 1.30 ± 0.74 (10) ng/mL
Tmax [1, 13]: 1.25 (10) h
Cmax [1, 14]: 2.23 ± 1.99 (4) ng/mL
Tmax [1, 14]: 1.25 (4) h
Cmax ([1]; Day 2 - 2200 Dose, Fed, Males): 1.24 ± 0.60 (6) ng/mL
Tmax ([1]; Day 2 - 2200 Dose, Fed, Males): 1.00 (6) h
Cmax [1, 15]: 1.64 ± 1.33 (10) ng/mL
Tmax [1, 15]: 1.00 (10) h
mean AUC(0-6) under fed conditions higher than fasted ([1]; Day 7, 0800 dose, both sexes): 12%
mean Cmax under fed conditions lower than fasted ([1]; Day 7, 0800 dose, both sexes): 12%
AUC(0-6) [1, 16]: 5.78 ± 2.18 (3) h · ng/mL
Cmax [1, 16]: 3.79 ± 1.46 (3) ng/mL
t½ [1, 16]: 1.04 ± 0.115 (3) h
λz [1, 16]: 0.6728 ± 0.0705 (3) h^−1
Tmax [1, 16]: 0.75 (3) h
AUC(0-6) [1, 17]: 4.13 ± 2.37 (7) h · ng/mL
Cmax [1, 17]: 2.42 ± 1.62 (7) ng/mL
t½ [1, 17]: 1.23 ± 0.22 (7) h
λz [1, 17]: 0.5766 ± 0.0978 (7) h^−1
Tmax [1, 17]: 0.75 (7) h
AUC(0-6) [1, 18]: 4.63 ± 2.33 (10) h · ng/mL
Cmax [1, 18]: 2.83 ± 1.63 (10) ng/mL
t½ [1, 18]: 1.18 ± 0.21 (10) h
λz [1, 18]: 0.6054 ± 0.0982 (10) h^−1
Tmax [1, 18]: 0.75 (10) h
AUC(0-6) [1, 19]: 7.28 ± 4.43 (4) h · ng/mL
Cmax [1, 19]: 3.67 ± 1.97 (4) ng/mL
t½ [1, 19]: 1.08 ± 0.35 (2) h
λz [1, 19]: 0.6783 ± 0.2222 (2) h^−1
Tmax [1, 19]: 1.13 (4) h
AUC(0-6) ([1]; Day 7 - 0800 Dose, Fed, Males): 3.82 ± 1.23 (6) h · ng/mL
Cmax ([1]; Day 7 - 0800 Dose, Fed, Males): 1.70 ± 0.67 (6) ng/mL
t½ ([1]; Day 7 - 0800 Dose, Fed, Males): 1.08 ± 0.32 (6) h
λz ([1]; Day 7 - 0800 Dose, Fed, Males): 0.6791 ± 0.1380 (6) h^−1
Tmax ([1]; Day 7 - 0800 Dose, Fed, Males): 1.00 (6) h
AUC(0-6) [1, 20]: 5.20 ± 3.25 (10) h · ng/mL
Cmax [1, 20]: 2.49 ± 1.61 (10) ng/mL
t½ [1, 20]: 1.08 ± 0.31 (08) h
λz [1, 20]: 0.6789 ± 0.1437 (08) h^−1
Tmax [1, 20]: 1.00 (10) h
Cmax [1, 21]: 3.43 ± 2.15 (3) ng/mL
Tmax [1, 21]: 1.00 (3) h
Cmax [1, 22]: 1.78 ± 1.23 (7) ng/mL
Tmax [1, 22]: 1.03 (7) h
Cmax [1, 23]: 2.27 ± 1.64 (10) ng/mL
Tmax [1, 23]: 1.00 (10) h
Cmax [1, 24]: 2.35 ± 1.97 (4) ng/mL
Tmax [1, 24]: 1.25 (4) h
Cmax ([1]; Day 7 - 2200 Dose, Fed, Males): 2.09 ± 1.33 (6) ng/mL
Tmax ([1]; Day 7 - 2200 Dose, Fed, Males): 0.88 (6) h
Cmax [1, 25]: 2.20 ± 1.51 (10) ng/mL
Tmax [1, 25]: 1.00 (10) h
accumulation (increase in Cmax over the seven days of dosing) ([1]; seven days of dosing, up to 150 mg three times daily): little or no accumulation
mean elimination half-life ([1]; summary, not dependent on sex, food or duration of dosing): ~1.1 h
AUC0-oo ([2]; fasted state): 1.82 ± 1.09 ng·h/mL
AUC0-tlast ([2]; fasted state): 1.20 ± 1.01 ng·h/mL
Cmax ([2]; fasted state): 1.70 ± 1.66 ng/mL
Tmax ([2]; fasted state): 0.68 h
t1/2 ([2]; fasted state): 0.55 ± 0.21 h
λz ([2]; fasted state): 1.45 ± 0.51 h⁻¹
AUC0-oo ([2]; fed state (high fat breakfast)): 3.92 ± 2.37 ng·h/mL
AUC0-tlast ([2]; fed state (high fat breakfast)): 2.69 ± 2.18 ng·h/mL
Cmax ([2]; fed state (high fat breakfast)): 2.56 ± 3.04 ng/mL
Tmax ([2]; fed state (high fat breakfast)): 1.40 ± 0.77 h
t1/2 ([2]; fed state (high fat breakfast)): 1.19 ± 0.80 h
λz ([2]; fed state (high fat breakfast)): 0.95 ± 0.90 h⁻¹
Tmax ([2]; fed state (high fat breakfast), listed as 4-HM-tolperisone): 1.38 h
AUC0-oo, geometric mean for the ratio 150 mg fed/150 mg fasted, point estimate ([2]; Fed/fasted, 150 mg): 1.95
AUC0-tlast, geometric mean for the ratio 150 mg fed/150 mg fasted, point estimate ([2]; Fed/fasted, 150 mg): 2.27
Cmax, geometric mean for the ratio 150 mg fed/150 mg fasted, point estimate ([2]; Fed/fasted, 150 mg): 1.23
concentration in blood plasma eight hours after study drug administration ([2]; all studied doses (150, 300, and 450 mg)): below the limit of quantification
Structure (SMILES): CC(CN1CCCCC1)C(=O)c1ccc(CO)cc1 (stereo not shown) [4-HM-Tolperisone, 4-hydroxymethyl-tolperisone]

AUC0-tlast ([3]; po, 150 mg): 54.0 ± 53.2 ng·h/mL
AUC0-oo, geometric mean for the ratio 150 mg fed/150 mg fasted, point estimate ([3]; male): 1.87
AUC0-tlast, geometric mean for the ratio 150 mg fed/150 mg fasted, point estimate ([3]; male): 1.92
Cmax, geometric mean for the ratio 150 mg fed/150 mg fasted, point estimate ([3]; male): 1.18
AUC0-oo ([3]; male, po, 150 mg): 55.4 ± 53.4 ng·h/mL
Cmax ([3]; male, po, 150 mg): 36.1 ± 38.4 ng/mL
Tmax ([3]; male, po, 150 mg): 0.66 h
t1/2 ([3]; male, po, 150 mg): 2.06 ± 0.43 h
mean AUC(0-6) under fasted conditions higher than fed ([4]; both): 127%
mean Cmax under fasted conditions higher than fed ([4]; both): 213%
t½ ([4]; both): 1.59 ± 0.63 (10) h
t½ ([4]; female): 1.53 ± 0.08 (3) h
t½ ([4]; male): 1.62 ± 0.77 (7) h
AUC(0-t) (clinical; both, AUC (0-6)): 196 ± 129 ng·h/mL
AUC(0-t) (clinical; both, AUC (0-t)): 117 ± 93 ng·h/mL
AUC(0-inf) (clinical; both, AUC (inf)): 122 ± 97.5 ng·h/mL
Tmax (clinical; both): 0.88 h
half-life (clinical; both, mean elimination half-life): ~1.3 h
half-life (clinical; both, t½): 1.22 ± 0.24 h
AUC(0-t) (clinical; female, AUC(0-6)): 276 ± 151 ng·h/mL
AUC(0-t) (clinical; female, AUC(0-t)): 173 ± 152 ng·h/mL
AUC(0-inf) (clinical; female, AUC(inf)): 181 ± 161 ng·h/mL
Tmax (clinical; female): 1 h
half-life (clinical; female, t½): 1.17 ± 0.25 h
AUC(0-t) (clinical; male, AUC(0-6)): 162 ± 113 ng·h/mL
AUC(0-t) (clinical; male, AUC(0-t)): 93.1 ± 55.2 ng·h/mL
AUC(0-inf) (clinical; male, AUC(inf)): 96.3 ± 55.7 ng·h/mL
Tmax (clinical; male): 0.75 h
half-life (clinical; male, t½): 1.24 ± 0.25 h
Structure (SMILES): Cc1ccc(C(=O)C(C)CN2CCCCC2)cc1 (stereo not shown) [Tolperisone, 2-methyl-1-(4-methylphenyl)-3-(1-piperidinyl)-1-propanone]
